# From patent US20090111836A1, “Angular Pyranocoumarins, Process for Preparation and Uses Thereof” (CITY UNIVERSITY OF HONG KONG, priority 2007, published 2009)
# Read-outs that look alike come from different tables or passages of the source.
# What was measured:
# K562 cells = experiment: MTT growth inhibition assay, K562; format: cell-based; settings: Homo sapiens
# Description: (§1) K562, K562-DR, HepG2, HepG2-DR were cultured in RPMI-1640 medium containing 10% fetal bovine serum and 100 U/mL, antibiotics. […] Drug test: […] New calorimetric cytotoxicity assay for anticancer-drug screening. […] Mosmann T. Rapid colorimetric assay for cellular growth and survival: application to proliferation and cytotoxicity assays. […] Gerlier D, Thomasset N. […] Each growth inhibition experiment must be repeated three times and results are expressed as mean±standard deviation (SD). Solvents and media were included as blank control. In MTT assay, cells are inoculated at 5000 cells/well and are incubated overnight. Drug treatment lasts for 68 h. MTT (5 mg/ml in PBS) is added to each well (1:10 dilution). […] Viable cell number is estimated by correlating to OD at 570 nm.
# KB V1 cells = experiment: SRB growth inhibition assay, KB V1; format: cell-based, human; settings: for IC50: Homo sapiens, read-out: IC50 (cytotoxicity); for Resistant ratio: IC50 KB V1 / IC50 KB-3-1
# KB-3-1 cells = experiment: SRB growth inhibition assay, KB-3-1; format: cell-based; settings: Homo sapiens, read-out: IC50 (cytotoxicity)
# K562-DR cells = experiment: MTT growth inhibition assay, K562-DR; format: cell-based, human; settings: for IC50: Homo sapiens, read-out: IC50 (cytotoxicity); for Resistant ratio: IC50 K562-DR / IC50 K562
# Description: as §1
# HepG2-DR cells [1] = experiment: SRB growth inhibition assay, HepG2-DR; format: cell-based, human; settings: for IC50: Homo sapiens, 72 h, read-out: IC50 (cytotoxicity); for Resistant ratio: IC50 HepG2-DR / IC50 HepG2
# Description: (§2) K562, K562-DR, HepG2, HepG2-DR were cultured in RPMI-1640 medium containing 10% fetal bovine serum and 100 U/mL, antibiotics. […] Drug test: […] New calorimetric cytotoxicity assay for anticancer-drug screening. […] Mosmann T. Rapid colorimetric assay for cellular growth and survival: application to proliferation and cytotoxicity assays. […] Gerlier D, Thomasset N. […] Each growth inhibition experiment must be repeated three times and results are expressed as mean±standard deviation (SD). Solvents and media were included as blank control. In SRB assay, cells are inoculated at 5000 cells/well in a 96-well microplate and incubated overnight to let cells adhere. Drug treatment lasts for 72 hours and cells are fixed for 1 hour at 4° C. with 50 μl ice-cold 15% trichloroacetic acid and washed with triple-distilled water 5 times. […] The protein-bound dye is dissolved in 100 μl per well of 10 mM Tris base (pH 10.5). The color intensity of SRB, which positively correlate to cell number in preliminary experiments, is estimated at OD 515 nm.
# HepG2 cells [2] = experiment: SRB growth inhibition assay, HepG2; format: cell-based; settings: Homo sapiens, read-out: IC50 (cytotoxicity)
# Description: as §2
# HepG2-DR cells [3] = experiment: Cell cycle distribution by flow cytometry (doxorubicin-induced G2/M arrest), HepG2-DR; format: cell-based, human; settings: for Cell cycle distribution, G0/G1 / Cell cycle distribution, G2/M / Cell cycle distribution, S / Cell cycle distribution, SubG1: HepG2-DR, 48 h
# Description: (§3) 1.2 Instruments: FACSCAN flow cytometry (Becton Dickinson Immunocytometry Systems, San Jose, Calif.), the obtained data were analyzed using the software of Macintosh CellQuest.
# (§4) 1.3 Cell lines: HepG2, HepG2-DR.
# (§5) 1.4 Drug treatment: HepG2 and HepG2-DR cells were respectively treated with each of cis-DMDCK, cis-DMDBK, trans-DMDCK, trans-DMDBK and doxorubicin for 48 hours, or treated respectively with the combination of doxorubicin and one of cis-DMDCK, cis-DMDBK, trans-DMDCK, trans-DMDBK for 48 hours.
# (§6) 1.5 Treatment and detection of sample cells: after washed twice by ice-cold PBS, the cells were fixed with 70% ethanol at −20° C. overnight. The fixed cells were washed by PBS once and resuspended in 1 mL of PBS containing 100 μg/mL RNAase A and incubated at 37° C. for 30 minutes. Finally, propidium iodide solution (final concentration is 40 μg/mL,) was added to bind with DNA and incubated at room temperature for 5-10 minutes. Cells were analyzed by FACSCAN flow cytometry immediately.
# HepG2 cells [4] = experiment: Cell cycle distribution by flow cytometry, HepG2; format: cell-based, human
# Description: as §3, §4, §5, §6
# Pgp-MDR cells = settings: Wu et al., Eur J Pharmacol 2003; cited from earlier work
# [5] = K562, MTT, (×10^−3), read-out: IC50 (cytotoxicity)
compound,measurement,setting,value
COc1ccc(C[C@H](N)C(=O)N[C@H]2[C@@H](O)[C@H](n3cnc4c(N(C)C)ncnc43)O[C@@H]2CO)cc1 [Puromycin],IC50,"K562 cells; K562, read-out: IC50 (cytotoxicity)",390 ± 160 nM
same,IC50,"KB V1 cells; KB-V1, 72 h",79300 ± 8810 nM
same,Resistant ratio,KB V1 cells,378
same,IC50,"KB-3-1 cells; KB 3-1, 72 h",210 ± 50 nM
same,IC50,K562-DR cells,47700 ± 9000 nM
same,Resistant ratio,K562-DR cells,122
same,IC50,HepG2-DR cells [1],104000 ± 2480 nM
same,Resistant ratio,HepG2-DR cells [1],597
same,IC50,"HepG2 cells [2]; HepG2, 72 h",170 ± 70 nM
CC[C@]1(O)C[C@@H]2CN(CCc3c([nH]c4ccccc34)[C@@](C(=O)OC)(c3cc4c(cc3OC)N(C)[C@H]3[C@@](O)(C(=O)OC)[C@H](OC(C)=O)[C@]5(CC)C=CCN6CC[C@]43[C@@H]65)C2)C1 [Vinblastine],IC50,K562 cells; [5],0.88 ± 0.25 nM
same,IC50,"KB V1 cells; KB V1, SRB, 72 h",1040 ± 340 nM
same,Resistant ratio,KB V1 cells,9271
same,IC50,"KB-3-1 cells; KB-3-1, SRB, 72 h, (×10^−3)",0.11 ± 0.01 nM
same,IC50,"K562-DR cells; K562-DR, MTT",200 ± 70 nM
same,Resistant ratio,K562-DR cells,227
same,IC50,"HepG2-DR cells [1]; HepG2-DR, SRB",310 ± 60 nM
same,Resistant ratio,HepG2-DR cells [1],3100
same,IC50,"HepG2 cells [2]; HepG2, SRB, 72 h, (×10^−3)",0.1 ± 0.01 nM
"COc1cccc2c1C(=O)c1c(O)c3c(c(O)c1C2=O)C[C@@](O)(C(=O)CO)C[C@@H]3O[C@H]1C[C@H](N)[C@H](O)[C@H](C)O1 [Doxorubicin, reference compound]",IC50,"K562 cells; K562, MTT, read-out: IC50 (cytotoxicity)",240 ± 80 nM
same,IC50,"KB V1 cells; KB V1, SRB, 72 h",32000 ± 2740 nM
same,Resistant ratio,KB V1 cells,178
same,"Cell cycle distribution, G0/G1",HepG2-DR cells [3]; 1 μM alone,51.33 ± 0.92%
same,"Cell cycle distribution, G2/M",HepG2-DR cells [3]; 1 μM alone,33.47 ± 0.17%
same,"Cell cycle distribution, S",HepG2-DR cells [3]; 1 μM alone,7.74 ± 3.57%
same,"Cell cycle distribution, SubG1",HepG2-DR cells [3]; 1 μM alone,2.37 ± 0.34%
same,"Cell cycle distribution, G0/G1",HepG2-DR cells [3]; 10 μM alone,24.81 ± 0.23%
same,"Cell cycle distribution, G2/M",HepG2-DR cells [3]; 10 μM alone,60.80 ± 0.79%
same,"Cell cycle distribution, S",HepG2-DR cells [3]; 10 μM alone,6.86 ± 1.80%
same,"Cell cycle distribution, SubG1",HepG2-DR cells [3]; 10 μM alone,3.37 ± 0.17%
same,"Cell cycle distribution, G0/G1",HepG2-DR cells [3]; 50 μM alone,12.05 ± 5.08%
same,"Cell cycle distribution, G2/M",HepG2-DR cells [3]; 50 μM alone,73.43 ± 9.00%
same,"Cell cycle distribution, S",HepG2-DR cells [3]; 50 μM alone,5.58 ± 1.34%
same,"Cell cycle distribution, SubG1",HepG2-DR cells [3]; 50 μM alone,4.88 ± 0.75%
same,Concentration required for almost a complete G2/M arrest,HepG2-DR cells [3]; P-glycoprotein-overexpressing HepG2-DR cells,over 50 μM
same,IC50,"KB-3-1 cells; KB-3-1, SRB, 72 h",180 ± 40 nM
same,"Cell cycle distribution, G0/G1","HepG2 cells [4]; HepG2, 0.2 μM alone, 48 h",4.92 ± 0.91%
same,"Cell cycle distribution, G2/M","HepG2 cells [4]; HepG2, 0.2 μM alone, 48 h",76.57 ± 1.32%
same,"Cell cycle distribution, S","HepG2 cells [4]; HepG2, 0.2 μM alone, 48 h",8.89 ± 0.83%
same,"Cell cycle distribution, SubG1","HepG2 cells [4]; HepG2, 0.2 μM alone, 48 h",0.92 ± 0.45%
same,Concentration achieving almost a complete G2/M arrest,HepG2 cells [4]; drug sensitive HepG2 cells,0.2 µM
same,IC50,"K562-DR cells; K562-DR, MTT",31000 ± 17100 nM
same,Resistant ratio,K562-DR cells,129
same,IC50,"HepG2-DR cells [1]; HepG2-DR, SRB",37300 ± 2420 nM
same,Resistant ratio,HepG2-DR cells [1],219
same,IC50,"HepG2 cells [2]; HepG2, SRB, 72 h",170 ± 100 nM
CC(=O)O[C@H]1C(=O)[C@@]2(C)[C@H]([C@H](OC(=O)c3ccccc3)[C@]3(O)C[C@H](OC(=O)[C@H](O)[C@@H](NC(=O)c4ccccc4)c4ccccc4)C(C)=C1C3(C)C)[C@]1(OC(C)=O)CO[C@@H]1C[C@@H]2O [Paclitaxel],IC50,K562 cells; [5],0.6 ± 0.23 nM
same,IC50,"KB V1 cells; KB V1, SRB, 72 h",8000 ± 1480 nM
same,Resistant ratio,KB V1 cells,4000
same,IC50,"KB-3-1 cells; KB-3-1, SRB, 72 h",2 ± 1 nM
same,IC50,"K562-DR cells; K562-DR, MTT",3250 ± 450 nM
same,Resistant ratio,K562-DR cells,5417
same,IC50,"HepG2-DR cells [1]; HepG2-DR, SRB",4230 ± 60 nM
same,Resistant ratio,HepG2-DR cells [1],696
same,IC50,"HepG2 cells [2]; HepG2, SRB, 72 h, (×10^−3)",6.07 ± 2.61 nM
(±)-Praeruptorin A,Enhancement of drug sensitivity of Pgp-MDR cells,Pgp-MDR cells,only moderate
